Test results as given in publication PMC9962200, “Selectively Modified Lactose and N-Acetyllactosamine Analogs at Three Key Positions to Afford Effective Galectin-3 Ligands” (International Journal of Molecular Sciences, 2023).
Structures can show the parent of a compound that is named as a salt.

Target: T1, human galectin-3 (hGal-3) (Homo sapiens, UniProt P17931)
T1 construct: P.K. and P.B. prepared recombinant full-length hGal-3 and contributed to the ITC experiments; made in house
Test: Isothermal titration calorimetry (ITC) of sugar analogs with recombinant hGal-3
Assay type: binding
Details: 27 °C; for −ΔH: binding enthalpy, lectin monomer units, errors 1–4%; for −ΔG: calculated from ΔG = -RT ln(Ka), errors less than 2%; for −TΔS: calculated from ΔG = ΔH − TΔS; for −TΔS / Kd: errors 1–7%; for n Sites/ Monomer: number of binding sites per hGal-3 monomer, errors less than 4%; for Kd / Ka: pH 7.2, 20 mM PBS buffer; for Kd: recombinant hGal-3, Kd calculated from 1/Ka; for Ka: recombinant hGal-3, errors 1–7%; for Relative Potencies: relative to methyl lactoside 1 = 1.0
Description: The Kd value of PNP LacNAc (20) was similar to that of its propargyl Lac analog 11.
ITC experiments were performed using a VP-ITC instrument from GE. Injections of 4 µL of carbohydrate solutions were added from a computer-controlled micro syringe at an interval of 4 min into the sample solution of hGal-3 (cell volume = 1.43 mL) with stirring at 350 rpm. Control experiments were performed by injecting the carbohydrates into a cell containing only buffer. The concentration range of hGal-3 was 90–130 µΜ, and the concentrations of the carbohydrates were 15–25 mM based on the dry weight molecular weights of the latter molecules. The concentration of hGal-3 was based on its molecular mass. Titrations were done at 27 °C (pH 7.2) using 20 mM PBS buffer. The experimental data were fitted to a theoretical titration curve using software supplied by the vendor, with ΔH (binding enthalpy in kcal mol^−1) (lectin monomer units), Ka (association constant) and n (number of binding sites per monomer), as adjustable parameters. The Kd (dissociation constant) was calculated from 1/Ka. The quantity c = Ka Mt (0), where Mt (0) is the initial macromolecule concentration, is of importance in titration microcalorimetry. All experiments were performed with c values 1 < c < 500. The instrument was calibrated using the calibration kit containing ribonuclease A (RNase A) and cytidine 2′-monophosphate (2′-CMP) supplied by the manufacturer. Thermodynamic parameters were calculated from the Gibbs Free Energy equation, ΔG = ΔH − TΔS = -RT ln(Ka), where ΔG, ΔH, and ΔS are the changes in free energy, enthalpy, and entropy of binding, respectively. T is the absolute temperature and R = 1.98 cal mol^−11 K^−1.

T1 sequence (P17931 whole entry): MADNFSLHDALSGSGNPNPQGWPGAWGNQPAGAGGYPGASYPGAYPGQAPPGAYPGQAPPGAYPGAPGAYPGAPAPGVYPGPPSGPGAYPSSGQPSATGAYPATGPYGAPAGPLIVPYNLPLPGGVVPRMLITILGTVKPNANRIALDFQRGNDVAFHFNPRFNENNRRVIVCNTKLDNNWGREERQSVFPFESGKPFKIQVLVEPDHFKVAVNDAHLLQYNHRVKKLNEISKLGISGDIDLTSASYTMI

SMILES | −ΔH [kcal/mol] | −ΔG [kcal/mol] | −TΔS [kcal/mol] | n Sites/ Monomer | Kd [µM] | Ka | Relative Potencies
CO[C@@H]1O[C@H](CO)[C@@H](O[C@@H]2O[C@H](CO)[C@H](O)[C@H](O)[C@H]2O)[C@H](O)[C@H]1O [Compound 1, methyl 4-O-β-D-galactopyranosyl-β-D-glucopyranoside, reference compound] | 3.9 | 5.5 | -1.6 | 1.08 | 91 | 1.1 10^4 M^−1 | 1.0
C#CCO[C@@H]1O[C@H](CO)[C@@H](O[C@@H]2O[C@H](CO)[C@H](O)[C@H](O)[C@H]2O)[C@H](O)[C@H]1O [Compound 4, Propargyl (β-D-Galactopyranosyl)-(1→4)-β-D-Glucopyranoside] | 5.7 | 5.9 | -0.2 | 0.98 | 47.6 | 2.1 10^4 M^−1 | 1.9
O=[N+]([O-])c1ccc(O[C@@H]2O[C@H](CO)[C@@H](O[C@@H]3O[C@H](CO)[C@H](O)[C@H](O)[C@H]3O)[C@H](O)[C@H]2O)cc1 [Compound 6, 4-Nitrophenyl (β-D-Galactopyranosyl)-(1→4)-β-D-Glucopyranoside] | 3.7 | 5.9 | -2.2 | 1.10 | 50 |  | 1.8
C#CCO[C@@H]1O[C@H](CO)[C@@H](O[C@@H]2O[C@H](CO)[C@H](O)[C@H](OS(=O)(=O)O)[C@H]2O)[C@H](O)[C@H]1O [Compound 11, Propargyl (3-O-Sulfo-β-D-Galactopyranosyl)-(1→4)-β-D-Glucopyranoside Sodium Salt] | 3.8 | 6.1 | -2.3 | 1.08 | 37 | 2.7 10^4 M^−1 | 2.5
O=[N+]([O-])c1ccc(O[C@@H]2O[C@H](CO)[C@@H](O[C@@H]3O[C@H](CO)[C@H](O)[C@H](OS(=O)(=O)O)[C@H]3O)[C@H](O)[C@H]2O)cc1 [Compound 12, 4-Nitrophenyl (3-O-Sulfo-β-D-Galactopyranosyl)-(1→4)-β-D-Glucopyranoside Sodium Salt] | 6.0 | 6.4 | -0.4 | 0.97 | 20.4 | 4.9 10^4 M^−1 | 4.5
CC(=O)N[C@H]1[C@H](Oc2ccc([N+](=O)[O-])cc2)O[C@H](CO)[C@@H](O[C@@H]2O[C@H](CO)[C@H](O)[C@H](O)[C@H]2O)[C@@H]1O [Compound 20, 4-Nitrophenyl (β-D-Galactopyranosyl)-(1→4)-2-Acetamido-2-Deoxy-β-D-Glucopyranoside] | 7.3 | 6.1 | 1.2 | 1.05 | 33.3 | 3.0 10^4 M^−1 | 2.7
CC(=O)N[C@H]1[C@H](Oc2ccc([N+](=O)[O-])cc2)O[C@H](CO)[C@@H](O[C@@H]2O[C@H](CO)[C@H](O)[C@H](OS(=O)(=O)O)[C@H]2O)[C@@H]1O [Compound 23, 4-Nitrophenyl (3-O-Sulfo-β-D-Galactopyranosyl)-(1→4)-2-Acetamido-2-Deoxy-β-D-Glucopyranoside Sodium Salt] | 3.3 | 6.3 | -3.0 | 0.96 | 22.2 | 4.5 10^4 M^−1 | 4.1

Further lines, results first:

−ΔH [kcal/mol] | −ΔG [kcal/mol] | −TΔS [kcal/mol] | n Sites/ Monomer | Kd [µM] | Ka | Relative Potencies | SMILES
4.2 | 6.0 | -1.8 | 1.10 | 38 | 2.6 10^4 M^−1 | 2.4 | C#CCO[C@@H]1O[C@H](CO)[C@@H](O[C@@H]2O[C@H](CO)[C@H](O)[C@H](O)[C@H]2O)[C@H](O)[C@H]1NC(C)=O [Compound 27, Propargyl (β-D-Galactopyranosyl)-(1→4)-2-Acetamido-2-Deoxy-β-D-Glucopyranoside]
5.2 | 6.6 | -1.4 | 1.07 | 14.7 | 6.8 10^4 M^−1 | 6.2 | C#CCO[C@@H]1O[C@H](CO)[C@@H](O[C@@H]2O[C@H](CO)[C@H](O)[C@H](OS(=O)(=O)O)[C@H]2O)[C@H](O)[C@H]1NC(C)=O [Compound 30, Propargyl (3-O-Sulfo-β-D-Galactopyranosyl)-(1→4)-2-Acetamido-2-Deoxy-β-D-Glucopyranoside Sodium Salt]
4.3 | 5.8 |  | 1.10 | 52.6 | 1.9 10^4 M^−1 | 1.7 | C#CCO[C@@H]1O[C@H](CO)[C@@H](O[C@@H]2O[C@H](CO)[C@H](O)[C@H](OCC(=O)O)[C@H]2O)[C@H](O)[C@H]1NC(C)=O [Compound 32, Propargyl (3-O-Carboxymethyl-β-D-Galactopyranosyl)-(1→4)-2-Acetamido-2-Deoxy-β-D-Glucopyranoside Sodium Salt]
5.9 | 5.7 | 0.2 | 1.04 | 62.5 | 1.6 10^4 M^−1 | 1.5 | C#CCOC1OC(CO)C(OC2OC(CO)C(O)C(OC3(C(=O)O)CC(O)C(NC(C)=O)C(C(O)C(O)CO)O3)C2O)C(O)C1NC(C)=O (stereo not drawn) [Compound 33]
